SMILES strings stand for the structures.

Consider one compound from patent US20180318415A1, “NOVEL ADJUVANT FORMULATIONS” (GLAXOSMITHKLINE BIOLOGICALS, SA, priority 2015, published 2018).

This data set has as its system rabbits. Briefly: Rabbit pyrogen test (USP<151>). Conditions: CRX-601 per kg animal body weight.

Regarding `CCCCCCCCCCC[C@H](CC(=O)NC1C(OC(=O)C[C@@H](CCCCCCCCCCC)OCCCCCCCCCC)[C@H](OP(=O)(O)O)C(CO)O[C@H]1OC[C@H](NC(=O)C[C@@H](CCCCCCCCCCC)OCCCCCCCCCC)C(=O)O)OCCCCCCCCCC` (stereo partly shown) [free CRX-601], the Max non-pyrogenic dose was 0.001 to 0.002 µg/kg.
